Reference: US6403594B1, “Benzopyran derivatives” (Recordati, S.A. Chemical and Pharmaceutical Company, priority 1999, dated 2002)
Structures can show the parent of a compound that is named as a salt.

Legend:
[1] = biological target: T1, α1b-adrenoceptor (recombinant) (Homo sapiens, UniProt P35368); experiment: Radioligand binding, cloned α1b-adrenoceptor ([3H]prazosin); details: read-out: Affinity for recombinant α1b-adrenoceptor, cloned receptors (Ki)
T1 construct: expressed in transfected cells
T1 sequence (P35368 1-520): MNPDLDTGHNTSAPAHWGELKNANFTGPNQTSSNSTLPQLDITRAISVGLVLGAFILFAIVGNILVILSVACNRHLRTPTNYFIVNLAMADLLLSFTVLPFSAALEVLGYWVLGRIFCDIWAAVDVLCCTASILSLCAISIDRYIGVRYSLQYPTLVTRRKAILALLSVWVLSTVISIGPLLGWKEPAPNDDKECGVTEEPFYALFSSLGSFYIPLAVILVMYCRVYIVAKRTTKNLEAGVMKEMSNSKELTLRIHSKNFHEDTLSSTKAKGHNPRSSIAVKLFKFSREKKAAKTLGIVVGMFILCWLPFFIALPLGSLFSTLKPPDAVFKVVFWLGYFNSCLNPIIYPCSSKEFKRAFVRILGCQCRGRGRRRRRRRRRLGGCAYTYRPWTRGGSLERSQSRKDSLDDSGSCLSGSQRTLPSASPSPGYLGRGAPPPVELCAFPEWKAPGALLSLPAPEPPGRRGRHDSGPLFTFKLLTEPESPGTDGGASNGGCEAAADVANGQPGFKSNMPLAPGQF
Method: (§1) Determination of affinity for cloned subtypes of α1-adrenoceptor subtypes was performed in membranes from cells transfected by electroporation with DNA expressing the genes encoding each α1-adrenoceptor subtype.
(§2) Non-specific binding was determined in the presence of 10 μM phentolamine.
(§3) Incubation was stopped by addition of ice-cold Tris buffer and rapid filtration through 0.2% polyethyleneimine-pretreated Schleicher & Schuell GF52 filters.
(§4) Data were expressed as mean Ki.

[2] = biological target: T2, α1d-adrenoceptor (recombinant) (Homo sapiens, UniProt P25100); experiment: Radioligand binding, cloned α1d-adrenoceptor ([3H]prazosin); details: read-out: Affinity for recombinant α1d-adrenoceptor, cloned receptors (Ki)
T2 sequence (P25100 1-572): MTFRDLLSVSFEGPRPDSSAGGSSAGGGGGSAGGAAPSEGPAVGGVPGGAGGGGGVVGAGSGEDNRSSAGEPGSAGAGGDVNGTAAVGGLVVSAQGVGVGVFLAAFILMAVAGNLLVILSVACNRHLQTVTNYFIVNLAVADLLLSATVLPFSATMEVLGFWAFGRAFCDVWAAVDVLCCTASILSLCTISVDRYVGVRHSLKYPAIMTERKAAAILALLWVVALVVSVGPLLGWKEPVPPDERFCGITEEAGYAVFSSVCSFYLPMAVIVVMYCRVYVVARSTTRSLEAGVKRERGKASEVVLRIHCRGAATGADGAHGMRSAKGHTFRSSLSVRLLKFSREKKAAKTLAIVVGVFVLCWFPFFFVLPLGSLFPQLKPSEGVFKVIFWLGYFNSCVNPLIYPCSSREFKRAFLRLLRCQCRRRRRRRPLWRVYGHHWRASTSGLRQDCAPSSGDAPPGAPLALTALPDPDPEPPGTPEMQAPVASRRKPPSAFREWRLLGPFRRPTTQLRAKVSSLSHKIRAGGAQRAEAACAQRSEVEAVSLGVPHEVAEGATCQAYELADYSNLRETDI
Method: as §1, §2, §3, §4

[3] = biological target: T3, 5HT1A-serotoninergic receptor (Homo sapiens, UniProt P08908); experiment: Radioligand binding, cloned 5-HT1A-serotoninergic receptor in HeLa membranes ([3H]8-OH-DPAT); design: expressed in transfected cells; host or cells: HeLa; details: cloned human 5-HT1A receptor in HeLa membranes, mean Ki, read-out: Affinity for 5-HT1A receptor, cloned receptors (Ki)
T3 sequence (P08908 1-422): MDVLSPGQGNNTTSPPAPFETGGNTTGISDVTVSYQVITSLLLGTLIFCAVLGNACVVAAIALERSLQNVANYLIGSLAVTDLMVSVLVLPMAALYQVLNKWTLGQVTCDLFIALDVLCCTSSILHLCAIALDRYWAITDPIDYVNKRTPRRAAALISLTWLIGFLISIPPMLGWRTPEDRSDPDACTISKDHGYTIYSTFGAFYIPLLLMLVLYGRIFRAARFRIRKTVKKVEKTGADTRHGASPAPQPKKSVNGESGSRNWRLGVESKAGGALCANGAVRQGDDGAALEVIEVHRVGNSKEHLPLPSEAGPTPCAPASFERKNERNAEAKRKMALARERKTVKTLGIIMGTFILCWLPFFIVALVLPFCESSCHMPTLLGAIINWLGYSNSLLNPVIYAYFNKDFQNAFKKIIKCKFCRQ
Method: HeLa cells were grown as monolayers in Dulbecco's Modified Eagle medium (DMEM) supplemented with 10% foetal calf serum and gentamicin (100 μg/mL), 5% CO2, at 37° C. The cells were detached from the growth flask at 95% confluence by a cell scraper and were lysed in ice-cold Tris-5-mM and EDTA-5-mM buffer (pH 7.4). The homogenates were centrifuged at 40000×g×20 minutes and the membranes were resuspended in a small volume of ice-cold buffer containing Tris 5 mM and EDTA 5 mM (pH 7.4), and immediately frozen and stored at −70° C. until use.
Non-specific binding was determined in the presence of 10 μM 5-HT. The incubation was stopped by addition of ice-cold Tris buffer and rapid filtration through 0.2% polyethyleneimine-pretreated Schleicher & Schuell filters.
as §4

[4] = biological target: T4, α1a-adrenoceptor (recombinant) (Homo sapiens, UniProt P35348); experiment: Radioligand binding, cloned α1a-adrenoceptor ([3H]prazosin); details: read-out: Affinity for recombinant α1a-adrenoceptor, cloned receptors (Ki)
T4 construct: expressed in transfected cells
T4 sequence (P35348 1-466): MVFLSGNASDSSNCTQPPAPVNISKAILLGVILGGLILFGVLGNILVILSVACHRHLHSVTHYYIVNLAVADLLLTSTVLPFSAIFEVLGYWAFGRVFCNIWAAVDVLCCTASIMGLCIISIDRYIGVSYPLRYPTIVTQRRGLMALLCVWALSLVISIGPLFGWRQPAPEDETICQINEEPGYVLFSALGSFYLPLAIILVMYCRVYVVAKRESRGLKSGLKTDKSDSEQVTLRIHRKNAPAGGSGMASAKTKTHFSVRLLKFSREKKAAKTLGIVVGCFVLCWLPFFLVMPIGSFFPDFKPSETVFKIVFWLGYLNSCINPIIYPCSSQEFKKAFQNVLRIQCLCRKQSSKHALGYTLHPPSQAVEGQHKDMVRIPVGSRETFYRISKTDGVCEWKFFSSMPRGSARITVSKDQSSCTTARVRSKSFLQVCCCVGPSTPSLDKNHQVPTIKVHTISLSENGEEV
Method: as §1, §2, §3, §4

[5] = biological target: T5, α1L adrenoceptor (Oryctolagus cuniculus, UniProt O02824); experiment: Functional antagonism of noradrenaline-induced contractions of rabbit aorta pretreated with chloroethylclonidine; assay type: biochemical; details: NA-induced contractions of rabbit aorta pretreated with chloroethylclonidine
T5 sequence (O02824 1-466): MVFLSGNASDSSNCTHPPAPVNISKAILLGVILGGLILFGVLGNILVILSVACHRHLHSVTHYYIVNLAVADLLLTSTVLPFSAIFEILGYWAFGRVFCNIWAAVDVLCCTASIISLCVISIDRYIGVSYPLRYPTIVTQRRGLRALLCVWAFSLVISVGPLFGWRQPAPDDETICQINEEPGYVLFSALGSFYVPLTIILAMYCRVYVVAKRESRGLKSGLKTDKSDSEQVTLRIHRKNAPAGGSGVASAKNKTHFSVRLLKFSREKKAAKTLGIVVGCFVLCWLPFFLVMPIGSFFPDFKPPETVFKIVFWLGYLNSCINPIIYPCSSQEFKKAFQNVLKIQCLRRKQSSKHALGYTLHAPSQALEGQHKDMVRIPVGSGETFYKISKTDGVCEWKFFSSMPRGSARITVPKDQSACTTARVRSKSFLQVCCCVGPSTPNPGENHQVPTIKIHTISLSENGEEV
Method: Adult male New Zealand rabbits were sacrificed by cervical dislocation. The aorta was removed, placed in Krebs-Henseleit buffer and dissected free of adhering tissue. […] Desmethylimipramine (0.1 μm) and corticosterone (1 μM) to block neuronal and extraneuronal uptake of NA, (±)-propranol (1 μM) to block β adrenoceptors and yohimbine (0.1 μM) to block α2 adrenoceptors, were added to the buffer.
The preparations were allowed to equilibrate for 60 minutes and then primed every thirty minutes with 10 μM NA for three times. The aortic rings were then incubated with the alkylating agent chloroethylclonidine (5×10^−5 M) for 30 minutes and then washed extensively three times (in 0.5 hours) before constructing the NA-concentration/response curve. After washout of NA and re-equilibration of the tissue (45 minutes), the drug to be tested was added and, after 30 minutes, a second NA-cumulative-concentration/response curve constructed.
Each antagonist concentration was tested using 2-3 aortic rings from different rabbits.
Dose ratios (i.e., the ratio between the concentrations of NA required to produce half-maximal response in the presence and in the absence of the test antagonist) were calculated for each concentration of the compounds. The logarithm of these dose ratio-1 was plotted against the logarithm of the compound concentrations (Schild plot) to evaluate the affinity constant Kb.
When only one or two concentrations of the test compounds were utilised, the apparent Kb value was calculated using the formula: Kb=[B]/(DOSE RATIO-1), where B is the antagonist concentration.

Structure (SMILES)	Ki [1] [nM]	Ki [2] [nM]	Ki [3] [nM]	Ki [4] [nM]	Functional affinity for the α1L adrenoceptor subtype, pKb [5]
CNC(=O)c1oc2c(C(=O)NCCCN3CCN(c4cc(Cl)ccc4OC)CC3)cccc2c(=O)c1C [Example 5, 8-{3-[4-(5-Chloro-2-methoxyphenyl)-1-piperazinyl]propylcarbamoyl}-3-methyl-2-methylcarbamoyl-4-oxo-4H-1-benzopyran]	2.39	2.05	23.1	0.57	
Cc1c(C(N)=O)oc2c(C(=O)NCCCN3CCN(c4ccccc4OCC(F)(F)F)CC3)cccc2c1=O [Example 10, 2-Carbamoyl-8-<3-{4-[2-(2,2,2-trifluoroethoxy)phenyl]-1-piperazinyl}-propylcarbamoyl>-3-methyl-4-oxo-4H-1-benzopyran]	14.3	6.53	5.54	0.173	
Cc1c(-c2ccccc2)oc2c(C(=O)NCCCN3CCN(c4cc(F)ccc4OCC(F)(F)F)CC3)cccc2c1=O [Example 20, 8-<3-{4-[5-Fluoro-2-(2,2,2-trifluoroethoxy)phenyl]-1-piperazinyl}-propylcarbamoyl>-3-methyl-4-oxo-2-phenyl-4H-1-benzopyran]	3.54	0.32	4.46	0.07	
Cc1c(-c2ccccc2)oc2c(C(=O)NCCCN3CCN(c4cc(Cl)ccc4OS(=O)(=O)C(F)(F)F)CC3)cccc2c1=O [Example 24, 8-{3-[4-(5-Chloro-2-trifluoromethanesulphonyloxyphenyl)-1-piperazinyl]-propylcarbamoyl}-3-methyl-4-oxo-2-phenyl-4H-1-benzopyran hydrochloride]	7.8	33.7	140	4.21	
COc1cc2nc(N3CCN(C(=O)C4CCCO4)CC3)nc(N)c2cc1OC (stereo not shown) [terazosin, reference compound]		2.4			7.25

Second part, led by results:

Ki [1] [nM]	Ki [2] [nM]	Ki [3] [nM]	Ki [4] [nM]	Structure (SMILES)	Functional affinity for the α1L adrenoceptor subtype, pKb [5]
2.34	2.68	12.3	0.32	COc1ccc(Cl)cc1N1CCN(CCCNC(=O)c2cccc3c(=O)c(C)c(C(C)=O)oc23)CC1 [Example 2, 2-Acetyl-8-{3-[4-(5-chloro-2-methoxyphenyl)-1-piperazinyl]propylcarbamoyl}-3-methyl-4-oxo-4H-1-benzopyran]	
	6.43	12.8	1.01	Cc1c(C(N)=O)oc2c(C(=O)NCCCN3CCN(c4ccc(F)cc4OCC(F)(F)F)CC3)cccc2c1=O [Example 7, 2-Carbamoyl-8-<3-{4-[4-fluoro-2-(2,2,2-trifluoroethoxy)phenyl]-1-piperazinyl}-propylcarbamoyl>-3-methyl-4-oxo-4H-1-benzopyran]	
94.7	467		28.6	COc1ccc(OCC(F)(F)F)cc1N1CCN(CCCNC(=O)c2cccc3c(=O)c(C)c(C(N)=O)oc23)CC1 [Example 9, 2-Carbamoyl-8-<3-{4-[2-methoxy-5-(2,2,2-trifluoroethoxy)phenyl]-1-piperazinyl}-propylcarbamoyl>-3-methyl-4-oxo-4H-1-benzopyran]	
2.02	9.96	4.16	1.15	Cc1c(C(N)=O)oc2c(C(=O)NCCCN3CCN(c4cc(Cl)ccc4O)CC3)cccc2c1=O [Example 12, 2-Carbamoyl-8-{3-[4-(5-chloro-2-hydroxyphenyl)-1-piperazinyl]-propylcarbamoyl}-3-methyl-4-oxo-4H-1-benzopyran]	
1	11	31.4	1.61	Cc1c(C(N)=O)oc2c(C(=O)NCCCN3CCN(c4cc(Cl)ccc4OS(=O)(=O)C(F)(F)F)CC3)cccc2c1=O [Example 13, 2-Carbamoyl-8-{3-[4-(5-chloro-2-trifluoromethanesulphonyloxyphenyl)-1-piperazinyl]propylcarbamoyl}-3-methyl-4-oxo-4H-1-benzopyran]	
31.6	34.7	257	2.54	COc1ccc(OCC(F)(F)F)cc1N1CCN(CCCNC(=O)c2cccc3c(=O)c(C)c(-c4ccccc4)oc23)CC1 [Example 21, 8-<3-{4-[2-Methoxy-5-(2,2,2-trifluoroethoxy)phenyl]-1-piperazinyl}-propylcarbamoyl>-3-methyl-4-oxo-2-phenyl-4H-1-benzopyran]	
